Values after ≈ are worked out from the molar mass of the structure shown. Like-named read-outs stand apart in the source and are kept apart here.
Legend:
[1] = system: advanced GIST; assay: Randomized, double-blind, placebo-controlled study of ripretinib in advanced GIST (Example 1): efficacy; assay type: in vivo, human
Experimental: Patients were randomized 2:1 to either 150 mg of ripretinib or placebo once daily. The primary efficacy endpoint is progression-free survival (PFS) as determined by independent radiologic review using modified Response Evaluation Criteria in Solid Tumors (RECIST). Secondary endpoints as determined by independent radiologic review using modified RECIST include Objective Response Rate (ORR), Time to Tumor Progression (TTP) and Overall Survival (OS).
Results. This study achieved its primary endpoint of improved PFS as determined by blinded independent central radiologic review using modified Response Evaluation Criteria in Solid Tumors (RECIST) version 1.1.
Patients whose disease progressed during the double blind phase of the study were escalated to 150 mg BID ripretinib, continued at the 150 mg QD dose, or discontinued in an open label-phase of the study.

[2] = system: plasma proteins; assay: Unbound fraction / plasma protein binding; assay type: in vitro ADME, human
Text: (§1) Both ripretinib and DP-5439 display high binding to plasma proteins in vitro; therefore, clinical samples were collected to investigate the effect of HI on the unbound fraction (fu) % for both analytes. Distributions of individual mean fu % for both ripretinib and DP-5439 show high variability between participants. The ripretinib mean fu % was ≤0.6% in healthy participants and in participants with hepatic impairment. The DP-5439 fu % was ≤0.5% in healthy participants and 0.2% to 1.4% in participants with hepatic impairment. No clear trend could be established between unbound ripretinib and DP-5439 PK parameters and the degrees of HI.

[3] = Unbound fraction / plasma protein binding; assay type: in vitro ADME, human; settings: human, plasma, oral, 50 mg, healthy participants and participants with hepatic impairment; clinical samples; read-out: mean unbound fraction fu %
Text: as §1

[4] = Solubility in buffers; assay type: physicochemical
[5] = system: GIST; assay: Clinical study in second-line through fourth-line plus GIST, ≥100 mg daily (Example 2): efficacy; assay type: in vivo, human
Experimental: Results. Data from 178 GIST patients receiving ripretinib at doses of ≥100 mg daily are noted in Table 2. The table includes investigator-assessed objective response rate (ORR) by best response, disease control rate (DCR) and median progression free survival (mPFS), all of which were determined by Response Evaluation Criteria in Solid Tumors (RECIST) version 1.1.
In Table 2, (1) indicates overall number of patients (n=178) remains the same as prior data presented at ESMO 2018; based on additional data cleaning, one patient from each of 2nd line and 4th/≥4th line were reclassified as 3rd line patients; (2) refers to median treatment durations were: 2nd line=44 weeks, 3rd line=48 weeks, 4th line=46 weeks and ≥4th line=29 weeks; (3) refers to including 60 patients who elected for intra-patient dose escalation from 150 mg QD to 150 mg BID; and (4) refers to the number of patients including 60 patients from 4th line.

[6] = PBPK model of ripretinib and DP-5439 (Simcyp Simulator)
Text: A PBPK model that included a mechanistic absorption model was developed.
Thus, potential auto-induction and auto-inhibition effects were captured within the model.
Single dose (SD) PK data from participants with mild, moderate, and severe HI were used to refine and/or verify the PBPK model. […] Subsequently, the corresponding plasma concentration-time profiles in HI participants were likewise simulated and compared to the observed data.
Predictions of plasma drug concentration-time profiles, clearance and DDIs were performed in the Simcyp Simulator using a population of virtual participants. The default healthy participant population was applied in all simulations involving healthy participants. […] With the exception of demographic data, all parameter values for the healthy participant population were the same as those used for the North European Caucasian population.
For simulations involving cancer participants, the North European Caucasian population was used to accommodate the wider age range observed in this population (19 to 87 years old; median 61 years). Weibull age distribution was applied with alpha and beta values of 5.47 and 66.5 years for male participants and 5.22 and 68.57 years for female participants. Age, height and weight distributions for the simulated virtual participant population were consistent with those from the first-in-human dose-escalation study in cancer patients.
For simulations involving participants with HI, 3 population models have been developed for the Simcyp Simulator and are based on the 3 Child-Pugh categories (CP-A, CP-B and CP-C). […] When reduced hepatic size was also taken into account, overall CYP3A4 expression in CP-A, CP-B and CP-C participants was reduced to 69%, 36% and 20%, respectively, to that of healthy participants.

[7] = patients crossed over from placebo to ripretinib

CCn1c(=O)c(-c2cc(NC(=O)Nc3ccccc3)c(F)cc2Br)cc2cnc(NC)cc21 [ripretinib]
benefit over placebo (PFS, OS), primary Exon 11 and Exon 9 mutation ([1]; 150 mg QD, FIG. 17): derive a benefit | OS rate at 12 months ([1]; 150 mg once daily): 65.4% | PFS rate at 6 months ([1]; 150 mg once daily): 51% | reduction of risk of disease progression or death compared to placebo ([1]; 150 mg once daily): 85% | median PFS ([1]; 150 mg once daily, initial ripretinib arm): 27.6 weeks | median PFS ([1]; 150 mg once daily, BICR, modified RECIST 1.1, double-blind cut): 6.3 months | median PFS ([1]; 150 mg once daily, BICR, modified RECIST 1.1, double-blind cut, listed as Ripretinib): 6.3 (4.6, 6.9) months | PFS compared to placebo in subgroups with Exon 9, 11, 13 or 17 KIT mutations ([1]; FIG. 26A-D): PFS benefit in all assessed patient subgroups | Overall survival: number of deaths (%) ([1]; double-blind cut): 26 (31) | PFS by BICR: deaths, number (%) ([1]; double-blind cut): 5 (6) | PFS by BICR: number of events (%) ([1]; double-blind cut): 51 (60) | PFS by BICR: progressive disease, number (%) ([1]; double-blind cut): 46 (54) | objective/overall response rate by BICR ([1]; modified RECIST 1.1, double-blind cut): 9.4% | objective/overall response rate by BICR ([1]; modified RECIST 1.1, double-blind cut, listed as Ripretinib): 9% | Median OS (95% CI) ([1]; open-label cut): Not Reached | Median PFS (95% CI) ([1]; open-label cut): 6.3 (4.6, 8.1) months | Overall Response Rate by BICR ([1]; open-label cut): 12% | Overall survival: number of deaths (%) ([1]; open-label cut): 38 (45) | PFS by BICR: deaths, number (%) ([1]; open-label cut): 6 (7) | PFS by BICR: number of events (%) ([1]; open-label cut): 64 (75) | PFS by BICR: progressive disease, number (%) ([1]; open-label cut): 58 (68) | median OS [1, 7]: 11.6 months | median PFS [1, 7]: 20.0 weeks | median OS ([1]; patients initially randomized to ripretinib, double-blind cut): 15.1 months | median OS ([1]; patients initially randomized to ripretinib, double-blind cut, listed as Ripretinib): 15 (12, 15) months | binding to plasma proteins ([2]; in vitro): high binding | impact of HI (albumin, ALP, ALT, AST, bilirubin changes) on unbound exposure ([2]; visual assessment): did not appear to have an impact | fraction unbound [3]: ≤ 0.006 | solubility [4]: pH-dependent solubility | solubility ([4]; fassgf or other biorelevant, intestinal buffer (pH 6.5), read-out: solubility): 123 µg/mL (≈ 241 µM) | solubility ([4]; simulated gastric fluid, gastric buffer (pH 2.0), read-out: solubility): 178 µg/mL (≈ 349 µM) | Disease Control Rate at 3 Months ([5]; Fourth-Line (n = 60)): 73% | Median Progression Free Survival (mPFS) ([5]; Fourth-Line (n = 60)): 30 weeks | Objective Response Rate by Best Response, includes unconfirmed ([5]; Fourth-Line (n = 60)): 15% | Objective Response Rate, confirmed only ([5]; Fourth-Line (n = 60)): 8% | Disease Control Rate at 3 Months ([5]; Second-Line (n = 37)): 81% | Median Progression Free Survival (mPFS) ([5]; Second-Line (n = 37)): 42 weeks | Objective Response Rate, confirmed only ([5]; Second-Line (n = 37)): 22% | Objective Response Rate by Best Response, includes unconfirmed ([5]; Second-Line (n = 37), ≥100 mg daily, RECIST 1.1, investigator): 30% | Disease Control Rate at 3 Months ([5]; Third-Line (n = 31)): 80% | Median Progression Free Survival (mPFS) ([5]; Third-Line (n = 31)): 40 weeks | Objective Response Rate by Best Response, includes unconfirmed ([5]; Third-Line (n = 31)): 23% | Objective Response Rate, confirmed only ([5]; Third-Line (n = 31)): 13% | Disease Control Rate at 3 Months ([5]; ≥Fourth-Line (n = 110)): 66% | Median Progression Free Survival (mPFS) ([5]; ≥Fourth-Line (n = 110)): 24 weeks | Objective Response Rate by Best Response, includes unconfirmed ([5]; ≥Fourth-Line (n = 110)): 11% | Objective Response Rate, confirmed only ([5]; ≥Fourth-Line (n = 110)): 7% | all predictions relative to observed ([6]; 150 mg QD dose): ≤ 1.25 fold | predicted mean AUC0-12 and Cmax relative to observed values ([6]; Day 1 and Day 15, except 250-mg QD dose): ≤ 1.5 fold

— patent US11779572B1, “Methods of treating gastrointestinal stromal tumors” (Deciphera Pharmaceuticals, LLC, priority 2022, dated 2023)
